Source: US4572911A, “Hexahydroindolinzine compounds, pharmaceutical compositions and methods and intermediates” (priority 1984, dated 1986)
Where a name gives a salt, the structure may show the parent alone. Read-outs that look alike come from different tables or passages of the source.

How the values were obtained:
gastric acid secretion = assay: Acute Gastric Fistula Rat Test (inhibition of gastric acid secretion, Total Acid Output); type: in vivo, Female Sprague-Dawley rats; settings: 1 h, @ 20 mg/kg i.d. (intraduodenal), collection at one hour, read-out: % Inhibition of TAO (Total Acid Output)
Procedure: The compounds of the invention are useful for inhibition of gastric acid secretion as measured by the following test. Female Sprague-Dawley rats are fasted twenty-four hours before testing and are given water ad libidum while being kept in individual cages. On the day of testing, the rats are weighed and are selected so that the rats in each test weigh within a range of ±20 grams.
Surgery is carried out under light ether anesthesia. As soon as the rat is anesthetized its teeth are removed and a mid-line incision is made on the abdomen about 11/2 inches in length and the stomach and duodenum are exposed. If at this point the stomach is filled with food or fecal material, the rat is not used. If the condition of the stomach is acceptable, a purse string stitch is placed on the fundic portion of the stomach with a suture, taking care not to pierce any blood vessels in the area. A small nick is then made into the stomach in the center of the purse string, and a cannula, consisting of a small vinyl tube with a flange on one end, is put into the stomach, and the purse string stitch is closed tightly around the flange. The test compound is administered intraduodonally (i.d.) immediately after surgery in a volume of 0.5 ml/100 grams rat. Control rats receive the test vehicle, 0.5% aqueous methyl cellulose.
After the surgery and after administration of the test compound, the abdominal wall and skin are closed simultaneously with three or four 10 mm wound clips and a collecting tube is placed on the cannula. Each rat is then placed in a box in which a longitudinal slit has been made to allow the cannula to hang freely and to allow the rat to move about unencumbered. After the rat has been allowed to stabilize for thirty minutes, the collection tube on the cannula is discarded and replaced with a clean tube to receive the gastric juice. Collections are made at one hour.
The sample of gastric contents collected is drained into a centrifuge tube and centrifuged to pack down the sediment. The volume is read and a 1 ml aliquot of the supernatant is put into a beaker containing 10 ml distilled water and is titrated to pH 7 using 0.01 N sodium hydroxide. Results are determined for Volume, Titratable Acid and Total Acid Output, where Volume equals total ml of gastric juice minus sediment; Titratable Acid (meq/1) equals amount of 0.01 N sodium hydroxide needed to titrate the acid to pH 7; and Total Acid Output equals Titratable Acid times Volume. Results are reported as % inhibition of Total Acid Output (TAO) for a dose of 20 mg/kg i.d. of the compound of formula (I) or (II). Particularly useful are compounds having significant inhibition of TAO at a dose of 20 mg/kg.

[1] = tested on: depressant effects of tetrabenazine (TBZ); assay: tetrabenazine (TBZ) antagonism assay for antidepressant agents; type: in vivo; settings: Mus musculus, ip, 0.5 h, mice, test compound i.p. 30 minutes prior to 32 mg/kg i.p. TBZ
Procedure: This is the "classical" tetrabenazine antagonism assay described in U.S. Pat. No. 3,787,577. Mice are injected with a test compound 30 minutes prior to the injection of 32 mg/kg i.p. of TBZ, a drug which decreases normal exploratory activity and induces ptosis. After 30 minutes, the mice are tested for two parameters: the presence of normal exploratory activity (EA) and reversal of ptosis (Pt). A control group of mice is given only 32 mg/kg i.p. of TBZ.

[2] = normal exploratory activity, read-out: TBZ ED50 EA (exploratory activity)
[3] = reversal of ptosis, read-out: TBZ ED50 Pt (reversal of ptosis)

Structure (SMILES): C[C@@]12CCCN1C[C@@H](c1ccccc1)c1sccc12 (relative stereo) [Example 18, 4,5,7,8,9,9a-Hexahydro-9a-alpha-methyl-4-alpha-phenylthieno-[2,3-g]indolizine perchlorate (1:1)]
- inhibition in vivo at 20 mg/kg (gastric acid secretion): 100%

Structure (SMILES): CC12CCCN1CCc1[nH]ccc12 (stereo not shown) [Example 5, 4,5,7,8,9,9a-Hexahydro-9a-methyl-3H-pyrrolo[2,3-g]-indolizine E-(2-)butenedioate(1:1)]
- inhibition in vivo at 20 mg/kg (gastric acid secretion): 66%

Structure (SMILES): CC12CCCN1CCc1c2ccn1Cc1ccccc1Cl (stereo not shown) [Example 4, 3-(2-Chlorobenzyl)-4,5,7,8,9,9a-hexahydro-9a-methyl-3H-pyrrolo[2,3-g]indolizine]
- inhibition in vivo at 20 mg/kg (gastric acid secretion): 78%

Structure (SMILES): Cn1ccc2c1CCN1CCCC21C (stereo not shown) [Example 13, 3,9a-Dimethyl-4,5,7,8,9,9a-hexahydro-3H-pyrrolo[2,3-]indolizine hydrochloride]
- inhibition in vivo at 20 mg/kg (gastric acid secretion): 74%

Structure (SMILES): CC12CCCN1CCc1c2ccn1-c1ccccc1 (stereo not shown) [Example 10, 4,5,7,8,9,9a-Hexahydro-9a-methyl-3-phenyl-3H-pyrrolo[2,3-g]indolizine]
- inhibition in vivo at 20 mg/kg (gastric acid secretion): 82%

Structure (SMILES): c1csc([C@@H]2CN3CCC[C@H]3c3ccsc32)c1 (relative stereo) [20 (1st), 4,5,7,8,9,9a-alpha-Hexahydro-4-alpha-(2-thienyl)thieno[2,3-g]indolizine]
- inhibition in vivo at 20 mg/kg (gastric acid secretion): 47%

Structure (SMILES): Cn1ccc2c1CCN1C(c3ccc(Cl)cc3)CCC21C (stereo not shown) [Example 12, 7-(4-Chlorophenyl)-4,5,7,8,9,9a-hexahydro-3,9a-dimethyl-3H-pyrrolo[2,3-g]indolizine (E)-2-butenedioate (1:7) hydrate (1:2)]
- inhibition in vivo at 20 mg/kg (gastric acid secretion): 37%

Structure (SMILES): c1ccc([C@@H]2CN3CCC[C@@H]3c3ccsc32)cc1 (relative stereo) [19 (2nd), 4,5,7,8,9,9a-beta-hexahydro-4-alpha-phenylthieno[2,3-g]indolizine]
- inhibition in vivo at 20 mg/kg (gastric acid secretion): 98%

Structure (SMILES): Cn1ccc2c1CCN1CCCC21c1ccccc1 (stereo not shown) [Example 7, 4,5,7,8,9,9a-Hexahydro-3-methyl-9a-phenyl-3H-pyrrolo[2,3-g]indolizine]
- inhibition in vivo at 20 mg/kg (gastric acid secretion): 86%

Structure (SMILES): c1ccc([C@@H]2CN3CCC[C@H]3c3ccsc32)cc1 (relative stereo) [19 (1st), 4,5,7,8,9,9a-alpha-Hexahydro-4-alpha-phenylthieno[2,3-g]indolizine]
- inhibition in vivo at 20 mg/kg (gastric acid secretion): 98%

Structure (SMILES): Cn1ccc2c1[C@H](c1ccccc1)CN1CCC[C@H]21 (relative stereo) [17 (2nd), 4,5,7,8,9,9a-beta-Hexahydro-3-methyl-4-alpha-phenyl-3H-pyrrolo[2,3-g]indolizine]
- inhibition in vivo at 20 mg/kg (gastric acid secretion): 88%
- ED50 [1, 2]: 2.4 mg/kg
- ED50 [1, 3]: ~0.75 mg/kg

Structure (SMILES): Cn1ccc2c1[C@H](c1ccccc1)CN1CCC[C@@H]21 (relative stereo) [17 (1st), 4,5,7,8,9,9a-alpha-Hexahydro-3-methyl-4-alpha-phenyl-3H-pyrrolo[2,3-g]indolizine]
- inhibition in vivo at 20 mg/kg (gastric acid secretion): 90%

Structure (SMILES): c1ccc([C@@H]2CN3CCC[C@H]3c3sccc32)cc1 (relative stereo) [19 (3rd), 4,5,7,8,9,9a-alpha-hexahydro-4-alpha-phenylthieno[3,2-g]indolizine]
- inhibition in vivo at 20 mg/kg (gastric acid secretion): 88%

Structure (SMILES): Cn1ccc2c1C1(C)CCCN1CC2 (stereo not shown) [Example 16, 1,9a-Dimethyl-4,5,7,8,9,9a-hexahydro-1H-pyrrolo[3,2-g]indolizine cyclohexanesulfamate]
- inhibition in vivo at 20 mg/kg (gastric acid secretion): 86%

Structure (SMILES): c1csc([C@@H]2CN3CCC[C@@H]3c3ccsc32)c1 (relative stereo) [20 (2nd), 4,5,7,8,9,9a-beta-hexahydro-4-alpha-(2-thienyl)thieno[2,3-g]indolizine]
- inhibition in vivo at 20 mg/kg (gastric acid secretion): 41%
- ED50 [1, 2]: ~24 mg/kg
- ED50 [1, 3]: ~30 mg/kg
